According to patent US7572923B2, “Indirubin derivatives having anticancer property against human cancer cell line” (Anygen Co., Ltd., priority 2004, dated 2009):

How the values were obtained:
[1] = tested on: human abdominal cavity cancer cell line (HT 1080); test: Inhibition of cancer cell line proliferation, HT 1080; format: cell-based; settings: HT-1080, 96 h, HT108, 3˜4 days incubation, absorbance at 515 nm
Protocol: (§1) For measuring the proliferation inhibition by indirubin compound, the method disclosed in K. Likhitwitayawuid et al. Journal. Nat. Prod. […] Followings are simple description of this method. The cancer cell line is diluted into 5×10^4 cfu/ml. Then, various concentrations of test compounds are added to 96 well microtiter plate containing diluted cell line. After incubating test plate for 3˜4 days at 37° C., the test plate is dried and Tris-base is added. Then, using ELISA plate detector, the absorbance at 515 nm is measured. IC50 is measured by non-linear regression method.

[2] = tested on: human colon cancer cell line (Col2); test: Inhibition of cancer cell line proliferation, Col2; format: cell-based; settings: 96 h, 3˜4 days incubation, absorbance at 515 nm
Protocol: as §1

[3] = tested on: human leukemia cell line (HL-60); test: Differentiation with low concentration 1,25-(OH)2D3 or ATRA, NBT reduction method; format: cell-based; settings: for % of Differentiation, 1,25-(OH)2D3: 1 μM compound with 5 nM of 1,25-(OH)2D3; for % of Differentiation, all-trans RA: 1 μM compound with 50 nM of ATRA
Protocol: (§2) For measuring the differentiation inducing effect to acute bone merrow leukemia cell line (HL-60) by indirubin AGM compound, NBT (nitroblue tetrazolium) reduction reaction method is employed. The leukemia cell line is diluted into 2×10^5 cfu/ml. After treating 20 μM and 1 μM concentrations of test compounds, test plate is incubated for 3 days at 37° C. in 5% CO2 incubator. Incubated cells are washed with phosphate buffered saline (PBS). Then, they are further incubated in PBS solution containing 0.1% NBT and 200 ng/ml of PMA (phorbol 12-myristate 13-acetate) for 30 minutes at 37° C. Incubated cells are centrifuged and collected cells are washed with PBS solution. Using cell number counter, differentiated cells forming nitroblue formazan among total cells are counted.
Next, we test if AGM compound of present invention can synergically induce the differentiation of acute bone merrow leukemia cell line when it is treated with low concentration of 1,25-dihydroxyvitamin D3[1,25-(OH)2D3] or all-trans retinoic acid (ATRA) known as differentiation inducing agent. […] […] As a positive control, conventional differentiation inducing agent is used.

[4] = tested on: human stomach cancer cell line (SNU-638); test: Inhibition of cancer cell line proliferation, SNU-638; format: cell-based; settings: 96 h, 3˜4 days incubation, absorbance at 515 nm
Protocol: as §1

[5] = tested on: leukemia cell line (HL-60); test: Differentiation inducing effect, NBT reduction method; format: cell-based, human; settings: 3 days
Protocol: as §2, with “After treating 20 μM and 1 μM concentrations of test compounds, test plate is incubated for 3 days at 37° C. in 5% CO2 incubator.” left out

[6] = tested on: human lung cancer cell line (A549); test: Inhibition of cancer cell line proliferation, A549; format: cell-based; settings: 96 h, 3˜4 days incubation, absorbance at 515 nm
Protocol: as §1

[7] = tested on: human leukemia cell line (HL-60); test: Inhibition of cancer cell line proliferation, HL-60; format: cell-based; settings: HL-60, 96 h, HL60, 3˜4 days incubation, absorbance at 515 nm
Protocol: as §1

[8] = tested on: human cell line (HT 1080); test: Inhibition of cancer cell line proliferation, HT 1080; format: cell-based; settings: HT-1080, 96 h, read-out: IC50 HT108
Protocol: as §1

Row | SMILES | IC50 [1] | IC50 [2] | % of Differentiation, 1,25-(OH)2D3 [3] | % of Differentiation, all-trans RA [3] | IC50 [4] | % of Differentiation ([5]; 1 μM compound) | % of Differentiation ([5]; 20 μM compound) | IC50 [6] | IC50 [7] | IC50 [8]
1 | O=C1Nc2ccccc2C1=C1Nc2ccccc2C1=O [AGM001, 1H,1′H-[2,3′] biindolylidene-3,2′-dione] | 42.2 µM | > 100 µM | 28.36 ± 0.15% | 39.61 ± 1.25% | > 100 µM | 7.76 ± 3.42% | 10.00 ± 0.27% | 31 µM | – | –
2 | O=C1Nc2ccccc2C1=C1Nc2ccccc2C1=NO [AGM002, 1H,1′H-[2,3′] biindolylidene-3,2′-dione 3-oxime] | 4.8 µM | > 100 µM | 24.52 ± 2.67% | 37.78 ± 1.06% | > 100 µM | 11.12 ± 0.31% | 6.78 ± 0.40% | 62 µM | – | –
3 | O=C1Nc2ccc(OC(F)(F)F)cc2C1=C1Nc2ccccc2C1=O [AGM003] | – | – | 22.04 ± 0.38% | 41.01 ± 1.26% | – | 6.27 ± 1.76% | 10.36 ± 0.29% | – | – | –
4 | O=C1Nc2ccc(OC(F)(F)F)cc2C1=C1Nc2ccccc2C1=NO [AGM004] | – | – | 26.36 ± 3.05% | 28.68 ± 0.23% | – | 22.81 ± 2.38% | – | – | – | –
5 | CC(=O)N1C(=C2C(=O)Nc3ccccc32)C(=O)c2ccccc21 [AGM006, 1-acetyl-1H,1′H-[2,3′] biindolylidene-3,2′-dione] | > 100 µM | > 100 µM | 19.60 ± 0.56% | 42.81 ± 1.05% | > 100 µM | 9.99 ± 1.47% | 10.49 ± 0.25% | > 100 µM | > 100 µM | –
6 | O=C1Nc2ccc([N+](=O)[O-])cc2C1=C1Nc2ccccc2C1=O [AGM009, 5′-nitro-1H,1′H-[2,3′] biindolylidene-3,2′-dione] | > 100 µM | > 100 µM | 48.51 ± 3.49% | 59.32 ± 1.54% | > 100 µM | 19.94 ± 2.02% | 29.26 ± 1.59% | > 100 µM | > 100 µM | –
7 | O=C1Nc2ccc(F)cc2C1=C1Nc2ccccc2C1=O [AGM010, 5′-fluoro-1H,1′H-[2,3′] biindolylidene-3,2′-dione] | – | > 100 µM | 78.44 ± 6.88% | 75.08 ± 6.80% | 40.3 µM | 7.53 ± 1.02% | 13.01 ± 0.14% | 96.8 µM | > 100 µM | > 100 µM
8 | Cc1ccc2c(c1)C(=C1Nc3ccccc3C1=NO)C(=O)N2 [AGM013, 5′-methyl-1H,1′H-[2,3′] biindolylidene-3,2′-dione 3-oxime] | 36.7 µM | > 100 µM | 35.49 ± 5.45% | 70.54 ± 2.17% | 17.6 µM | 26.22 ± 2.04% | – | 20.4 µM | 65.4 µM | –
9 | O=C1Nc2ccc(I)cc2C1=C1Nc2ccccc2C1=NO [AGM015, 5′-iodo-1H,1′H-[2,3′] biindolylidene-3,2′-dione 3-oxime] | > 100 µM | > 100 µM | 33.27 ± 0.75% | 67.41 ± 1.36% | > 100 µM | 30.50 ± 4.97% | – | > 100 µM | > 100 µM | –
10 | Cc1cc(C)c2c(c1)C(=C1Nc3ccccc3C1=NO)C(=O)N2 [AGM016, 5′,7′-dimethyl-1H,1′H-[2,3′] biindolylidene-3,2′-dione 3-oxime] | > 100 µM | > 100 µM | 27.24 ± 1.32% | 33.99 ± 0.47% | 90.6 µM | 3.07 ± 1.69% | 10.35 ± 0.62% | > 100 µM | > 100 µM | –
11 | O=C1Nc2ccccc2C1=C1Nc2ccc(Br)cc2C1=NO [AGM018, 5-bromo-1H,1′H-[2,3′] biindolylidene-3,2′-dione 3-oxime] | 73.6 µM | 10.5 µM | 36.52 ± 1.27% | 23.13 ± 0.71% | 32.9 µM | 8.69 ± 4.95% | – | 38.6 µM | 25 µM | –
12 | O=C1Nc2ccc(S(=O)(=O)[O-])cc2C1=C1Nc2ccccc2C1=O.[Na+] [AGM019, 3,2′-dioxo-1,3,1′,2′-tetrahydro-[2,3′] biindolylidene-5′-sodium sulfonate] | – | – | 27.66 ± 1.28% | 51.49 ± 0.13% | – | 9.36 ± 0.13% | 12.44 ± 1.66% | – | – | –
13 | O=C1Nc2ccc(S(=O)(=O)[O-])cc2C1=C1Nc2ccccc2C1=NO.[Na+] [AGM020, 3-hydroxyimino-2′-oxo-1,3,1′,2′-tetrahydro-[2,3′] biindolylidene-5′-sodium sulfonate] | – | – | 23.34 ± 0.65% | 34.50 ± 2.91% | – | 11.34 ± 2.32% | 23.86 ± 1.31% | – | – | –
14 | O=C1Nc2ccccc2C1=C1Nc2ccc(Br)cc2C1=O [AGM021, 5-bromo-1H,1′H-[2,3′] biindolylidene-3,2′-dione] | > 100 µM | > 100 µM | 24.64 ± 0.65% | 28.23 ± 0.02% | > 100 µM | 11.63 ± 3.48% | 9.64 ± 0.51% | > 100 µM | > 100 µM | –
15 | O=C1Nc2ccc([N+](=O)[O-])cc2C1=C1Nc2ccc(Br)cc2C1=O [AGM022] | – | – | 48.28 ± 0.36% | 51.20 ± 3.70% | – | 18.35 ± 0.02% | 22.89 ± 0.51% | – | – | –
16 | Nc1ccc2c(c1)C(=C1Nc3ccccc3C1=NO)C(=O)N2 [AGM031, 5′-amino-1H,1′H-[2,3′] biindolylidene-3,2′-dione-3-oxime] | – | 24.6 µM | – | – | 10 µM | – | – | 9.13 µM | 13 µM | 5.07 µM
17 | O=C1Nc2ccccc2/C1=C1/Nc2ccccc2C1=O [Indirubin] | – | – | 26.39 ± 0.98% | 44.87 ± 2.54% | – | 15.28 ± 1.12% | 1.18 ± 0.18% | – | – | –
